# According to BindingDB's records for doi:10.1021/jm701437d (The Institute of Cancer Research, 2008):
# Target: not listed separately
# Assay: Inhibition of GSK3-beta in human PC3M cells by ELISA
row,SMILES,IC50 [nM]
1,NC1CCN(c2ncnc3[nH]ccc23)CC1,15000
2,NC1(c2ccc(Cl)cc2)CCN(c2ncnc3[nH]ccc23)CC1,600
3,NCC1(Cc2ccc(Cl)cc2)CCN(c2ncnc3nc[nH]c23)CC1,1700
4,NCC1(c2ccc(Cl)cc2)CCN(c2ccnc3[nH]ccc23)CC1,1400
5,NC(c1ccc(Cl)cc1)C1CCN(c2ccnc3[nH]ccc23)CC1 (centres undefined),2000
6,NC(c1ccccc1)C1CCN(c2ncnc3[nH]ccc23)CC1 (centres undefined),> 30000
7,NCC1(c2ccc(Cl)cc2)CCN(c2ncnc3nc[nH]c23)CC1,1300
8,NCC1CCN(c2ncnc3[nH]ccc23)CC1,11000
9,NC1CCN(c2ncnc3n[nH]cc23)CC1,> 30000
10,NCC1CCN(c2ncnc3n[nH]cc23)CC1,> 30000

# Target: Glycogen synthase kinase-3 beta (Homo sapiens, UniProt P49841)
# Assay: Inhibition of GSK3-beta in human PC3M cells by ELISA
# Glycogen synthase kinase-3 beta, sequence (P49841 whole entry): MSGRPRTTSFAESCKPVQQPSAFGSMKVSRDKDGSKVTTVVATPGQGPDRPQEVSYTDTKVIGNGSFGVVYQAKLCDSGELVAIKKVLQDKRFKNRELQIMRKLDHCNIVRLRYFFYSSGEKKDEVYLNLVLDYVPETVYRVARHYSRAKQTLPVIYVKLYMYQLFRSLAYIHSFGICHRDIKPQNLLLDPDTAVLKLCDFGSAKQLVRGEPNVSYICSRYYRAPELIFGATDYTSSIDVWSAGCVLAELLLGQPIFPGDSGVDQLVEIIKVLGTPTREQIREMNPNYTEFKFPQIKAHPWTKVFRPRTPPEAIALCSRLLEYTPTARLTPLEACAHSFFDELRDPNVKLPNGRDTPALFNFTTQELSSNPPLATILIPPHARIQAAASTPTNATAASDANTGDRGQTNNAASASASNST
row,SMILES,IC50 [nM]
1,O=c1cc(N2CCOCC2)oc2c(-c3ccccc3)cccc12,8100
2,NCC1(c2ccc(Cl)cc2)CCN(c2ncnc3[nH]ccc23)CC1,590
3,NC(c1ccc(Cl)cc1)C1CCN(c2ccnc3[nH]ccc23)CC1 (centres undefined),590
4,NCC1(Cc2ccc(Cl)cc2)CCN(c2ncnc3[nH]ccc23)CC1,1400
